Measurements as given in patent publication US5137907A, “1-(3-(4-(3,5-difluorophenoxy) phenoxy) propyl) - pyrazole, and its production and use” (Sumitomo Chemical Company, Limited, priority 1988, dated 1992).
Like-named read-outs stand apart in the source and are kept apart here.

Legend:
[1] = tested on: common mosquito (Culex pipiens pallens); assay: Inhibition of emergence of last instar larvae of common mosquito (Test Example 1); format: in vivo
Protocol: An emulsifiable concentrate prepared according to Formulation Example 1 was diluted with water to make a designed concentration. The dilution (0.7 ml) was added to 100 ml of distilled water. Last instar larvae of common mosquito (Culex pipiens pallens) were released therein and reared for 7 days until their emergence, and the concentration for 50% inhibition (IC50) was examined.

[2] = tested on: housefly (Musca domestica); assay: Inhibition test on housefly larvae reared in artificial culture until pupation, pupae examined (Test Example 2); format: in vivo
Protocol: Powdered animal feed (2 g) was thoroughly mixed with bran (14 g). An emulsifiable concentrate prepared according to Formulation Example 1 was diluted with water to a designed concentration, and the dilution was added to the above mixture. The resultant mixture was stirred well to make an artificial culture. Thirty larvae of housefly (Musca domestica) were reared therein until their pupation. The obtained pupae were placed into a plastic cup, and the concentration for 50% inhibition was examined in the same manner as in Test Example 1.

[3] = last instar larvae, 0.7 ml dilution of emulsifiable concentrate added to 100 ml distilled water, reared for 7 days until emergence
[4] = thirty larvae reared in artificial culture (powdered animal feed 2 g, bran 14 g, diluted emulsifiable concentrate) until pupation, pupae placed into plastic cup

Row | SMILES | concentration for 50% inhibition (IC50) [1, 3] [ppm] | concentration for 50% inhibition (IC50) [2, 4] [ppm] | further results
1 | COC(C)(C)CCCC(C)CC=CC(C)=CC(=O)OC(C)C (centres unmarked) [(A), methoprene] | – | – | concentration for 50% inhibition (IC50) ([1]; 168 h): 0.00018 ppm; concentration for 50% inhibition (IC50) [2]: 2.3 ppm
2 | c1ccc(Oc2ccc(OCCCc3ccccn3)cc2)cc1 [(B)] | 0.00013 | > 3 | –
3 | Cn1nccc1COc1ccc(Oc2ccccc2)cc1 [(C)] | – | > 3 | –
4 | c1ccc(Oc2ccc(OCCn3cccn3)cc2)cc1 [(D)] | 0.00023 | – | –
5 | Clc1cccc(Oc2ccc(OCCn3cccn3)cc2)c1 [(E)] | – | 1.0 | –
6 | c1ccc(Oc2ccc(OCCCn3cccn3)cc2)cc1 [(F)] | 0.0007 | – | –
7 | Clc1cc(Cl)cc(Oc2ccc(OCCCn3cccn3)cc2)c1 [(G)] | – | 1.8 | –
8 | Fc1cc(F)cc(Oc2ccc(OCCCn3cccn3)cc2)c1 [Pyrazole compound (I), 1-{3-[4-(3,5-difluorophenoxy)phenoxy]propyl}pyrazole] | 0.000009 | 0.14 | –
